US20020142996A1, “Use of bisphosphonic acids for treating angiogenesis” (priority 1999, published 2002)
Read-outs that look alike come from different tables or passages of the source.

Legend:
[1] = tested on: Human umbilical vein endothelial cells (HUVEC); details: 30 μM
HUVEC = experiment: Endothelial cell migration assay
[2] = tested on: human tumour cell line A431 (epithelial carcinoma); experiment: Tumour cell proliferation assay (methylene blue)
[3] = tested on: bFGF induced angiogenesis; experiment: Growth factor impregnated subcutaneous chamber implant angiogenesis model in mice (bFGF); assay type: in vivo; details: 1, 10 and 100 μg/kg/day s.c., chambers removed 5 days after implantation
Protocol: (§1) Effect of Zoledronic Acid on Angiogenesis Induced by Growth Factor Impregnated, Subcutaneous Implants in Mice
(§2) Female mice (Tiflbm:MAG ) weighing 17 to 20 g were used. They were identified via ear markings and kept in groups (6 animals per cage) under normal conditions and observed daily. Six mice were used per treatment group in each experiment. All experiments were performed at least twice.
(§3) Porous tissue chambers made of perfluoro-alkoxy-Teflon (Teflon®-PFA, 21 mm×8 mm diameter, 550 μl volume) and perforated with 80 regularly spaced 0.8 mm holes were used. Both ends were sealed with removable caps of the same material. Four to six chambers were inserted in a silicon tube (12 mm diameter). […]
(§4) Five days after implantation, animals were anaesthetized (3% isoflurane) and sacrificed using an overdose of pentobarbitone (210 mg/kg i.p., Vetanarcol, Veterinaria AG, Zürich, Switzerland). Chambers were then taken out of the animal, the vascularized fibrous tissue that had formed around each implant was carefully removed, weighed and the total amount of blood was quantified by colorimetric determination of the haemoglobin concentration.
(§5) After addition of 2 ml of distilled water, tissue samples were homogenised for 1 min at 24000 rpm (Ultra Turrax T25). […] The absorbance at 540 mn (Uvikon 810 P) is proportional to the haemoglobin concentration. […]

[4] = tested on: VEGF induced angiogenesis; experiment: Growth factor impregnated subcutaneous chamber implant angiogenesis model in mice (VEGF); assay type: in vivo; details: highest dose tested, 100 μg/kg/day s.c.
Protocol: as §1, §2, §3, §4, §5

[5] = tested on: Human umbilical vein endothelial cells (HUVEC); experiment: cells

Question: `O=C(O)CN(CCN(CC(=O)O)CC(=O)O)CC(=O)O` [EDTA] was tested. Which “inhibition of HUVEC proliferation induced by FCS” value ([1]; FCS) did it give?
Answer: The value was 23.7%.

Question: What about the “inhibition of HUVEC proliferation induced by VEGF” value ([1]; VEGF) of the same molecule?
Answer: The value was 55.6%.

Question: And the “inhibition of HUVEC proliferation induced by bFGF” value ([1]; bFGF)?
Answer: Its value is 49.5%.

Question: What about the “effect on HUVEC migration” value (HUVEC) of the same molecule?
Answer: The value was “no consistent effects”.

Question: And the “inhibition of A431 proliferation” value ([2]; 30 μM)?
Answer: The value was 8.8%.

Question: And the “effect on A431 proliferation in the tested dose range” value ([2]; tested dose range)?
Answer: The value was “no significant effect”.

Question: `O=P(O)(O)C(O)(Cn1ccnc1)P(=O)(O)O` [Zoledronic acid, 1-hydroxy-2-(imidazol-1-yl)ethane-1,1-diphosphonic acid] was tested. Which “approximate IC50, inhibition of bFGF-induced angiogenic response measured by blood content” value ([3]; blood content) did it give?
Answer: The value was roughly 3.1 µg/kg.

Question: And the “approximate IC50, inhibition of bFGF-induced angiogenic response measured by weight” value ([3]; tissue weight)?
Answer: Its value is roughly 2.5 µg/kg.

Question: What about the “inhibition of the VEGF-induced increase in blood content” value [4] of the same molecule?
Answer: Its value is “significant inhibition”.

Question: What about the “inhibition of the VEGF-induced increase in weight” value [4] of the same molecule?
Answer: Its value is “not in weight”.

Question: `O=P(O)(O)C(O)(Cn1ccnc1)P(=O)(O)O` [Zoledronate, 1-hydroxy-2-(imidazol-1-yl)ethane-1,1-diphosphonic acid] was tested. Which IC50 ([5]; read-out: IC50, VEGF-induced HUVEC proliferation) did it give?
Answer: Its IC50 is 6.9 ± 0.4 µM.

Question: And the IC50 ([5]; read-out: IC50, bFGF-induced HUVEC proliferation)?
Answer: Its IC50 is 4.2 ± 0.4 µM.

Question: And the IC50 ([5]; read-out: IC50, serum-induced HUVEC proliferation)?
Answer: Its IC50 is 4.1 ± 0.6 µM.

Question: And the “effect on HUVEC migration” value (HUVEC; 30 μM)?
Answer: Its value is “completely inhibited”.

Question: And the “effect on HUVEC migration” value (HUVEC; concentrations of up to 10 μM, basal medium, serum or VEGF)?
Answer: Its value is “stimulated HUVEC migration”.

Question: And the IC50 ([2]; Homo sapiens, A-431, 72 h, read-out: IC50, proliferation of A431)?
Answer: Its IC50 is 1.35 µM.
